Results: patent publication US20240293413A1, “COMPOUND AND METHOD FOR TREATING CHEMOTHERAPY-RELATED GASTROINTESTINAL SIDE EFFECTS” (ONQUALITY PHARMACEUTICALS CHINA LTD., priority 2021, published 2024)

Experiments:
Assay type in all cases: in vivo
[1] = system: Chemotherapeutic agent-caused diarrhea models of Balb/c mice; experiment: Examples 1-229 (Table 3): oral CDK inhibitor, relief of diarrhea caused by a chemotherapeutic agent;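 also: percent of treated mice whose diarrhea grade fell below chemotherapy-group average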
[2] = system: Chemotherapeutic agent-caused constipation models of Balb/c mice; experiment: Examples 272-342 (Table 5): oral CDK inhibitor, relief of constipation caused by a chemotherapeutic agent; conditions: Example 335; Cytarabine (Ara-C) oral administration 1000 mg/kg single; CDK inhibitor oral 60 mg/kg single, 24 h before; cycle 8 days;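 also: percent of treated mice relieved versus chemotherapy group by feces reduction rate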
Description: Construction of mouse animal models: Chemotherapeutic agent-caused constipation models of Balb/c mice were constructed according to the administration mode and frequency of the chemotherapeutic agent as shown in Table 5.
(§1) Balb/c mice were fed for 1 week, and then divided into groups. The experiment was divided into a control group, a chemotherapeutic agent group, and a CDK inhibitor group, each of which comprised 10 mice, to perform the administration experiment, for which the administration dosage, mode, time and frequency were shown in Table 5. The control group: being intragastrically administered with the same solvent as that used in the CDK inhibitor group (the time was shown in Table 5), and then being injected/intragastrically administered with the same solvent as that used in the chemotherapeutic agent group (the administration mode was shown in Table 5): the chemotherapeutic agent group: being intragastrically administered with the same solvent as that used in the CDK inhibitor group (the time was shown in Table 3), and then being injected/intragastrically administered with the chemotherapeutic agent (the type, administration mode and dosage were shown in Table 5): the CDK inhibitor group: being intragastrically administered with the CDK inhibitor (the time was shown in Table 5), and then being administered with the chemotherapeutic agent (the mode and dosage were shown in Table 5).
Feces reduction rate (%)=(the control group−the chemotherapeutic agent group or the CDK inhibitor group)/the control group*100%
The feces amount of mice within 3 hours was observed and recorded every day.

[3] = system: diarrhea caused by a chemotherapeutic agent in Balb/c mice; experiment: Examples 343-381 (Table 6): oral versus intravenous CDK inhibitor, relief of diarrhea caused by a chemotherapeutic agent; conditions: Example 370, Topotecan (TP) oral administration 20 mg/kg single, 24 h before, cycle 10 days;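 also: percent of treated mice whose diarrhea grade fell below chemotherapy-group average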
Description: Balb/c mice were fed for 1 week, and then divided into groups. The experiment was divided into a control group, a chemotherapeutic agent group, and an oral administration group of a CDK inhibitor, and an intravenous injection group of a CDK inhibitor, each of which comprised 10 mice, to perform the administration experiment, for which the administration dosage, mode, time and frequency were shown in Table 6. The control group: being injected/intragastrically administered with the same solvent as that used in the CDK inhibitor group (the time was shown in Table 6), and then being injected/intragastrically administered with the same solvent as that used in the chemotherapeutic agent group (the administration mode was shown in Table 6): the chemotherapeutic agent group: being injected/intragastrically administered with the same solvent as that used in the CDK inhibitor group (the time was shown in Table 6), and then being injected/intragastrically administered with the chemotherapeutic agent (the type, administration mode and dosage were shown in Table 6): the oral administration group of the CDK inhibitor: being intragastrically administered with the CDK inhibitor (the time was shown in Table 6), and then being administered with the chemotherapeutic agent (the mode and dosage were shown in Table 6): the intravenous injection group of the CDK inhibitor: being injected with the CDK inhibitor through tail vein (the time was shown in Table 6), and then being administered with the chemotherapeutic agent (the mode and dosage were shown in Table 6).
(§2) The diarrhea grading of mice was observed and recorded every day.

[4] = system: diarrhea caused by a chemotherapeutic agent in Balb/c mice; experiment: Examples 230-271 (Table 4): oral CDK inhibitor, relief of diarrhea caused by a chemotherapeutic agent; conditions: Example 262; Cytarabine (Ara-C) oral administration 1000 mg/kg single; CDK inhibitor oral single (dosage not given), 24 h before; cycle 8 days
Description: as §1, with “4.” for “5.”, “4),” for “5),”, “4):” for “5):”, “4),” for “3),”, “4).” for “5).”
as §2

With `CN1CCC(c2c(O)cc(O)c3c(=O)cc(-c4ccccc4Cl)oc23)C1CO` (stereo not shown) [Riviciclib] as the compound, how does the “Relative remission rate (%)” value ([1]; Example 35, Fluorouracil (5-Fu) intraperitoneal injection 125 mg/kg single, CDK inhibitor oral 65 mg/kg single 8 h before, cycle 10 days) read?
Its value is 40%.

And the “Relative remission rate (%)” value ([1]; Example 192, Gemcitabine (GEM) intravenous injection 120 mg/kg single, CDK inhibitor oral 180 mg/kg single, 6 h before, 8 days)?
The value was 70%.

What about the “Relative remission rate (%)” value ([1]; Example 215, Fluorouracil 100 mg/kg and irinotecan 200 mg/kg intravenous injection single, CDK inhibitor oral 65 mg/kg single, 2 h before, 10 days) of the same compound?
Its value is 50%.

And the Relative remission rate [2]?
The Relative remission rate was 20%.

And the Relative remission rate ([3]; CDK inhibitor intravenous injection 60 mg/kg single)?
The Relative remission rate was 10%.

What about the Relative remission rate ([3]; CDK inhibitor oral 60 mg/kg single) of the same compound?
Its Relative remission rate is 30%.

What about the Relative remission rate [4] of the same compound?
The Relative remission rate was 20%.
